# Results from patent publication US20200121677A1, “SUBSTITUTED 6,7-DIHYDROPYRAZOLO[1,5-a]PYRAZINES AS NEGATIVE ALLOSTERIC MODULATORS OF MGLUR2 RECEPTORS” (Janssen Pharmaceutica NV, priority 2014, published 2020).
# Where a name gives a salt, the structure may show the parent alone.
# How the values were obtained:
# human mGlu2 receptor = human mGlu2 receptor (Homo sapiens, UniProt Q14416); assay: [35S]GTPγS binding assay, mGluR2 negative allosteric modulation (membranes from CHO cells transfected with human mGlu2 receptor, glutamate ~EC80 60 μM); settings: for GTPγS - hmGluR2 anGT pIC50: membranes with human mGlu2 receptor; for GTPγS - hmGluR2 anGT pIC50 / IC50: glutamate ~EC80 (60 μM), pIC50 = -log IC50 (M); for GTPγS - hmGluR2 anGT Emax: relative maximal effect: maximal % inhibition relative to the control glutamate response; for IC50: GTPγS - hmGluR2 anGT pIC50, membranes with human mGlu2 receptor; for Emax: read-out: GTPγS - hmGluR2 anGT Emax, relative maximal effect: maximal % inhibition relative to the control glutamate response;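 for all read-outs here: membranes preincubated 30 min at 30 °C with compound plus glutamate, then [35S]GTPγS (0.1 nM) incorporation measured over another 30 min at 30 °C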
# human mGlu2 receptor, sequence (Q14416 19-872): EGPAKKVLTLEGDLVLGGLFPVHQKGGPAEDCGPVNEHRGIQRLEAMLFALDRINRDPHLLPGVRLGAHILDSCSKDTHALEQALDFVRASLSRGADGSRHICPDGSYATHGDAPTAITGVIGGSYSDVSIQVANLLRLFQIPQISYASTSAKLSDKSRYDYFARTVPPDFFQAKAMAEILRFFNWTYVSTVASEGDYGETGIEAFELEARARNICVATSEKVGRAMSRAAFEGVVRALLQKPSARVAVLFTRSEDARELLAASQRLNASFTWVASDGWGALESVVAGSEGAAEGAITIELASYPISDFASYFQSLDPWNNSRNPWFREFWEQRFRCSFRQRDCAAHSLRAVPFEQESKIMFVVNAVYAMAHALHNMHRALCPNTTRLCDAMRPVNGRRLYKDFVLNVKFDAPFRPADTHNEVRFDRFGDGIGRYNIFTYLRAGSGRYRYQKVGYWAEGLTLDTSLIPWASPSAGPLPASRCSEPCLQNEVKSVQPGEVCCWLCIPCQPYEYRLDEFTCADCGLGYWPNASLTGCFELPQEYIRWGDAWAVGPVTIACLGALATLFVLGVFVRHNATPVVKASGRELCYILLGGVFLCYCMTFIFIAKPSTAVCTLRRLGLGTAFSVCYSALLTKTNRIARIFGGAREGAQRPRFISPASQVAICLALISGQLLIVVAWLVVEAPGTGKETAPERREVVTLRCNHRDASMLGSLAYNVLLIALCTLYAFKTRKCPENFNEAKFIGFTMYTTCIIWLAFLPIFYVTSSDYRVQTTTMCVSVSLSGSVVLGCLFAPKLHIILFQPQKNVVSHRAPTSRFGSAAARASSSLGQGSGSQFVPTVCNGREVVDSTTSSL
# Experimental: The [^35S]GTPγS binding assay is a functional membrane-based assay used to study G-protein coupled receptor (GPCR) function whereby incorporation of a non-hydrolysable form of GTP, [^35S]GTPγS (guanosine 5′-triphosphate, labelled with gamma-emitting ^35S), is measured. […] Here we describe the use of the [^35S]GTPγS binding assay using membranes from cells transfected with the human mGlu2 receptor and adapted from Schaffhauser et al. (Molecular Pharmacology, 2003, 4:798-810) for the detection of the negative allosteric modulation (NAM) properties of the compounds of this invention.
# CHO-cells were cultured to pre-confluence and stimulated with 5 mM butyrate for 24 h. Cells were then collected by scraping in PBS and cell suspension was centrifuged (10 min at 4000 RPM in benchtop centrifuge). Supernatant was discarded and pellet gently resuspended in 50 mM Tris-HCl, pH 7.4 by mixing with an Ultra Turrax homogenizer. The suspension was centrifuged at 12,400 RPM (Sorvall F14S-6x250Y) for 10 minutes and the supernatant discarded. The pellet was homogenized in 5 mM Tris-HCl, pH 7.4 using an Ultra Turrax homogenizer and centrifuged again (13,000 RPM, 20 min, 4° C.). The final pellet was resuspended in 50 mM Tris-HCl, pH 7.4 and stored at −80° C. in appropriate aliquots before use. Protein concentration was determined by the Bradford method (Bio-Rad, USA) with bovine serum albumin as standard.
# Measurement of mGluR2 negative allosteric modulatory activity of test compounds was performed as follows. Test compounds and glutamate were diluted in assay buffer containing 10 mM HEPES acid, 10 mM HEPES salt, pH 7.4, 100 mM NaCl, 3 mM MgCl2 and 10 μM GDP. Human mGlu2 receptor-containing membranes were thawed on ice and diluted in assay buffer supplemented with 18 μg/ml saponin. Membranes were pre-incubated with compound together with a predefined (˜EC80) concentration of glutamate (60 μM) for 30 min at 30° C. After addition of [^35S]GTPγS (f.c. 0.1 nM), assay mixtures were shaken briefly and further incubated to allow [^35S]GTPγS incorporation on activation (30 minutes, 30° C.). Final assay mixtures contained 7 μg of membrane protein in 10 mM HEPES acid, 10 mM HEPES salt, pH 7.4, 100 mM NaCl, 3 mM MgCl2, 10 μM GDP and 10 μg/ml saponin. Total reaction volume was 200 μl. Reactions were terminated by rapid filtration through Unifilter-96 GF/B plates (Perkin Elmer, Massachusetts, USA) using a 96-well filtermate universal harvester. Filters were washed 6 times with ice-cold 10 mM NaH2PO4/10 mM Na2HPO4, pH 7.4. Filters were then air-dried, and 30 μl of liquid scintillation cocktail (Microscint-O) was added to each well. Membrane-bound radioactivity was counted in a Topcount.
# Data were calculated as % of the control glutamate response, defined as the response that is generated upon addition of an EC80-equivalent concentration of glutamate.
Compound,melting point [°C],GTPγS - hmGluR2 anGT pIC50 (human mGlu2 receptor),GTPγS - hmGluR2 anGT Emax (human mGlu2 receptor) [%],IC50 (human mGlu2 receptor) [M],Emax (human mGlu2 receptor) [%]
C[C@H]1CN(c2ccc(C(F)(F)F)cc2)C(=O)c2c(C(=O)Nc3cncc(F)c3)cnn21 (as salt: HCl) [13a],146.4,–,–,–,–
COCC1CN(c2ccc(C(F)(F)F)cc2)C(=O)c2c(C(=O)Nc3cccnc3)cnn21 (racemic) [compound 165],–,8.03,106,–,–
"CC(NC(=O)c1cnn2c1C(=O)N(c1ccc(C(F)(F)F)cc1)C[C@@H]2C)C1CC1 (single isomer, unassigned) [compound 61]",186.7,–,–,7.08e-08,104
"COCC1CN(c2ccc(C(F)(F)F)cc2)C(=O)c2c(C(=O)Nc3cnccn3)cnn21 (single isomer, unassigned) [compound 155]",–,6.48,106,–,–
"COCC1CN(c2ccc(C(F)(F)F)c(Cl)c2)C(=O)c2c(C(=O)Nc3cccnc3)cnn21 (single isomer, unassigned) [compound 157]",–,–,–,2.82e-07,104
"COCC1CN(c2ccc(C(F)(F)F)cc2)C(=O)c2c(C(=O)Nc3cccnc3)cnn21 (single isomer, unassigned) [compound 159]",–,6.10,108,–,–
C[C@H]1CN(c2ccc(C(F)(F)F)cc2)C(=O)c2c(C(=O)Nc3cncc(F)c3)cnn21 [13a],–,–,106,1.1e-09,–
C[C@H]1CN(c2ccc(C(F)(F)F)cc2)C(=O)c2c(C(=O)Nc3cccc(S(C)(=O)=O)c3)cnn21 [compound 2],217.7,–,–,1.7e-09,103
C[C@H]1CN(c2ccc(C(F)(F)F)cc2)C(=O)c2c(C(=O)Nc3ccc(S(C)(=O)=O)cc3)cnn21 [compound 6],198.2,–,–,3.09e-09,107
Cc1ncccc1NC(=O)c1cnn2c1C(=O)N(c1ccc(C(F)(F)F)cc1)C[C@@H]2C [compound 10],171.6,–,–,2e-08,113
COc1cccnc1NC(=O)c1cnn2c1C(=O)N(c1ccc(C(F)(F)F)cc1)C[C@@H]2C [compound 11],164.7,–,–,2.4e-07,109
C[C@H]1CN(c2ccc(C(F)(F)F)cc2)C(=O)c2c(C(=O)Nc3ncccc3F)cnn21 [compound 12],–,–,–,4.79e-08,110
COc1cnccc1NC(=O)c1cnn2c1C(=O)N(c1ccc(C(F)(F)F)cc1)C[C@@H]2C [compound 16],200.8,–,–,1.38e-08,115
Cc1cccc(NC(=O)c2cnn3c2C(=O)N(c2ccc(C(F)(F)F)cc2)C[C@@H]3C)n1 [compound 17],–,7.39,107,–,–
Cc1cncc(NC(=O)c2cnn3c2C(=O)N(c2ccc(C(F)(F)F)c(F)c2)C[C@@H]3C)c1 [compound 22],246.7,–,–,3.55e-09,109
C[C@H]1CN(c2ccc(C(F)(F)F)c(F)c2)C(=O)c2c(C(=O)Nc3cncc(F)c3)cnn21 [compound 24],204,–,–,3.24e-09,107
COCc1cc(N2C[C@H](C)n3ncc(C(=O)Nc4ccccn4)c3C2=O)ccc1C(F)(F)F [compound 31],160.4,–,–,2.29e-08,109
COc1cncc(NC(=O)c2cnn3c2C(=O)N(c2ccc(C(F)(F)F)c(OC)c2)C[C@@H]3C)c1 [compound 34],191.5,–,–,1.05e-08,107
C[C@H]1CN(c2ccc(C(F)(F)F)c(Cl)c2)C(=O)c2c(C(=O)Nc3cncc(F)c3)cnn21 [compound 50],168.1,–,–,1.74e-09,108
COc1cncc(NC(=O)c2cnn3c2C(=O)N(c2ccc(C(F)(F)F)c(Cl)c2)C[C@@H]3C)c1 [compound 51],214.9,–,–,1.41e-09,113
C[C@H]1CN(c2ccc(C(F)(F)F)c(CF)c2)C(=O)c2c(C(=O)Nc3ccncc3)cnn21 [compound 52],197.4,–,–,2.57e-09,118
C[C@H]1CN(c2ccc(C(F)(F)F)c(CF)c2)C(=O)c2c(C(=O)Nc3cccnc3)cnn21 [compound 53],–,8.61,114,–,–
Cc1cc(NC(=O)c2cnn3c2C(=O)N(c2ccc(C(F)(F)F)c(CF)c2)C[C@@H]3C)ccn1 [compound 54],141.3,–,–,5.25e-09,118
"C[C@H]1CN(c2ccc(C(F)(F)F)cc2)C(=O)c2c(C(=O)Nc3ccc(F)nc3)cnn21 [compound 55, (7S)—N-(6-fluoro-3-pyridyl)-7-methyl-4-oxo-5-[4-(trifluoromethyl)phenyl]-6,7-dihydropyrazolo[1,5-a]pyrazine-3-carboxamide]",–,–,–,5.62e-09,101

Compound,melting point [°C],GTPγS - hmGluR2 anGT pIC50 (human mGlu2 receptor),GTPγS - hmGluR2 anGT Emax (human mGlu2 receptor) [%],IC50 (human mGlu2 receptor) [M],Emax (human mGlu2 receptor) [%]
C[C@H]1CN(c2ccc(Cl)c(Cl)c2)C(=O)c2c(C(=O)Nc3ccc(F)nc3)cnn21 [compound 56],–,8.53,104,–,–
"C[C@H]1CN(c2ccc(C(F)(F)F)cc2)C(=O)c2c(C(=O)Nc3ccccc3)cnn21 [compound 57, (7S)-7-Methyl-4-oxo-N-phenyl-5-[4-(trifluoromethyl)phenyl]-6,7-dihydropyrazolo[1,5-a]pyrazine-3-carboxamide]",–,–,–,1.7e-09,102
C[C@H]1CN(c2ccc(C(F)(F)F)cc2)C(=O)c2c(C(=O)NCC3CCC3)cnn21 [compound 58],204.6,–,–,1.82e-08,113
C[C@H]1CN(c2ccc(C(F)(F)F)cc2)C(=O)c2c(C(=O)NCC3CCCC3)cnn21 [compound 59],159.8,–,–,3.55e-08,103
C[C@H]1CN(c2ccc(C(F)(F)F)cc2)C(=O)c2c(C(=O)NCC3CC3)cnn21 [compound 60],161.4,–,–,4.37e-08,103
C[C@H]1CN(c2ccc(C(F)(F)F)cc2)C(=O)c2c(C(=O)NCC3CCCO3)cnn21 (stereo partly shown) [compound 62],231.4,–,–,7.76e-08,104
Cc1cc(CNC(=O)c2cnn3c2C(=O)N(c2ccc(C(F)(F)F)cc2)C[C@@H]3C)ccn1 [compound 63],148.8,–,–,1.17e-07,99
C[C@H]1CN(c2ccc(C(F)(F)F)cc2)C(=O)c2c(C(=O)NCC3CCOC3)cnn21 (stereo partly shown) [compound 64],68.3,–,–,1.7e-07,107
C[C@H]1CN(c2ccc(C(F)(F)F)cc2)C(=O)c2c(C(=O)NC3CCCCC3)cnn21 [compound 65],209.8,–,–,1.78e-07,107
C[C@H]1CN(c2ccc(C(F)(F)F)cc2)C(=O)c2c(C(=O)NC3CCOCC3)cnn21 [compound 66],–,–,–,1.86e-07,103
C[C@H]1CN(c2ccc(C(F)(F)F)cc2)C(=O)c2c(C(=O)NCc3ccccc3)cnn21 [compound 67],–,–,–,2e-07,104
C[C@H]1CN(c2ccc(C(F)(F)F)cc2)C(=O)c2c(C(=O)NC(C)(C)C)cnn21 [compound 68],–,–,–,2.63e-07,102
CNC(=O)c1cnn2c1C(=O)N(c1ccc(C(F)(F)F)cc1)C[C@@H]2C [compound 69],–,–,–,4.57e-07,103
C[C@H]1CN(c2ccc(C(F)(F)F)cc2)C(=O)c2c(C(=O)NCC3CCOCC3)cnn21 [compound 70],128.8,–,–,8.13e-07,106
C[C@H]1CN(c2ccc(C(F)(F)F)cc2)C(=O)c2c(C(=O)NC3CCC3)cnn21 [compound 71],208.2,–,–,7.08e-08,111
C[C@H]1CN(c2ccc(C(F)(F)F)cc2)C(=O)c2c(C(=O)NC3COC3)cnn21 [compound 72],108.6,–,–,2.75e-07,111
"C[C@H]1CN(c2ccc(C(F)(F)F)cc2)C(=O)c2c(C(N)=O)cnn21 [compound 73, (7S)-7-methyl-4-oxo-5-[4-(trifluoromethyl)phenyl]-6,7-dihydropyrazolo [1,5-a]pyrazine-3-carboxamide]",275,–,–,1.35e-06,95
Cc1cc(N2C[C@H](C)n3ncc(C(=O)Nc4cncc(F)c4C)c3C2=O)ccc1Cl [compound 79],182,–,–,1.66e-09,112
COc1ccc(NC(=O)c2cnn3c2C(=O)N(c2ccc(C(F)(F)F)cc2)C[C@@H]3C)nc1 [compound 102],–,7.67,112,–,–
C[C@H]1CN(c2ccc(C(F)(F)F)cc2)C(=O)c2c(C(=O)NC=O)cnn21 [compound 134],–,–,–,6.31e-08,103
"Cc1cc(C(=O)NC(=O)c2cnn3c2C(=O)N(c2ccc(C(F)(F)F)cc2)C[C@@H]3C)ccn1 [compound 135, (7S)-7-Methyl-N-(2-methylpyridine-4-carbonyl)-4-oxo-5-[4-(trifluoromethyl)phenyl]-6,7-dihydropyrazolo[1,5-a]pyrazine-3-carboxamide]",–,–,–,6.92e-07,111
COCc1cc(NC(=O)c2cnn3c2C(=O)N(c2ccc(C(F)(F)F)cc2)C[C@@H]3C)ccn1 [compound 149],–,7.69,104,–,–
COCC1CN(c2ccc(C(F)(F)F)cc2)C(=O)c2c(C(=O)Nc3cnccn3)cnn21 (stereo not shown) [compound 163],–,–,–,1.02e-08,107
COCC1CN(c2ccc(C(F)(F)F)c(Cl)c2)C(=O)c2c(C(=O)Nc3cccnc3)cnn21 (stereo not shown) [compound 164],–,–,–,1.91e-09,108
